Assay results as given in US8278301B2, “2-alkylbenzoxazole carboxamides as 5HT3 modulators” (Albany Molecular Research, Inc., priority 2006, dated 2012).
Structures can show the parent of a compound that is named as a salt.

Target: T1, mouse 5-HT3 receptor (Mus musculus, UniProt P23979)
T1 construct: host or cells: mouse neuroblastoma cells (N1E-155 as printed)
T1 sequence (P23979 24-489): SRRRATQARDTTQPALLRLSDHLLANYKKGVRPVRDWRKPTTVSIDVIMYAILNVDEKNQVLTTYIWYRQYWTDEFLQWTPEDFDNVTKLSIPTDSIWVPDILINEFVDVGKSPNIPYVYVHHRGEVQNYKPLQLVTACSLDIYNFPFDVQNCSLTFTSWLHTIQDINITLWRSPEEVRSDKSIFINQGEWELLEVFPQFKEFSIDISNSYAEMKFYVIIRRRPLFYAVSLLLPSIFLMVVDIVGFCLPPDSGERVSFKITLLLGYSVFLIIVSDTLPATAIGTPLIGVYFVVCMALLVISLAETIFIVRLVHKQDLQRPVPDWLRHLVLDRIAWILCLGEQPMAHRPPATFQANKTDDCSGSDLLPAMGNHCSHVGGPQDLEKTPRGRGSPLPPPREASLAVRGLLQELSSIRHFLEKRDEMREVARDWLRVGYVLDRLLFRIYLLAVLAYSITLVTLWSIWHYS
Assay: Compound affinity for the mouse 5-HT3 receptor (Assay C), [3H]-GR65630 radioligand binding, Novoscreen
Settings: Assay C; single concentration 100 nM, in duplicate; [3H]-GR65630; read-out: Mouse % Inhibition @ 100 nM
Description: Compound Affinity for the Mouse 5-HT3Receptor (Assay C)
Compounds were tested by Novoscreen Biosciences Corporation, 7170 Standard Drive, Hanover, Md. in a radioligand binding assay using the mouse 5-HT3 receptor derived from mouse neuroblastoma cells and [^3H]-GR65630 (ligand). The non-specific binding determinant was MDL 72222. Compounds were tested at a single concentration of 100 nM in duplicate. Percent inhibition is reported. In order to evaluate the relative affinity of the various compounds for the 5-HT3 receptor, N1E-155 cell lines were developed to express the target protein. For binding, these cells were homogenized, centrifuged and washed with buffer (20 mM HEPES, 150 mM NaCl, pH 7.4) then suspended in 0.5 mL of buffer and [^3H]-GR65630 added at a concentration of 3.5×10^−10 M. An initial single concentration of 10^−7 M of the test compound was then added. Incubation was carried out at room temperature for 60 minutes at 25° C. then was terminated by rapid removal of the incubation medium. Radioactivity was assessed using liquid scintillation spectrophotometry after exposure to scintillation cocktail for at least three hours. […] Ki values were then calculated from the Cheng-Prusoff equation. In all of the above binding studies the non-specific determinant was MDL-72222 (1.0 μM).
(§1) In the table below, the assay in which the data were obtained is shown (as A, B. C, or D) along with the data.

Structure (SMILES) | inhibition at 0.1 µM [%]
O=C(N[C@@H]1CN2CCC1CC2)c1cccc2oc(C3CCCC3)nc12 [Example 6, (S)—N-(1-Azabicyclo[2.2.2]oct-3-yl)-2-cyclopentylbenzoxazole-4-carboxamide Hydrochloride] | 90.2
CN1C2CCCC1CC(NC(=O)c1cccc3oc(C4CCCCC4)nc13)C2 (stereo not drawn) [Example 15, Endo-N-(9-Methyl-9-azabicyclo[3.3.1]non-3-yl)-2-cyclohexylbenzoxazole-4-carboxamide Hydrochloride] | 105
O=C(N[C@@H]1CN2CCC1CC2)c1cccc2oc(C3CCCCC3)nc12 [Example 16, (S)—N-(1-Azabicyclo[2.2.2]oct-3-yl)-2-cyclohexylbenzoxazole-4-carboxamide Hydrochloride] | 94.1
CCN1C2CCCC1CC(NC(=O)c1cccc3oc(C4CC4)nc13)C2 (stereo not drawn) [Example 21, N-(9-Ethyl-9-azabicyclo[3.3.1]non-3-yl)-2-cyclopropylbenzoxazole-4-carboxamide Hydrochloride] | 34.9

Same assay, conditions: read-out: Mouse % Inhibition @ 100 nM

Structure (SMILES) | inhibition at 0.1 µM [%]
CC1CC1c1nc2c(C(=O)NC3CN4CCC3CC4)cccc2o1 (racemic) [Example 14, (S)—N-(1-Azabicyclo[2.2.2]oct-3-yl)-2-(2-methylcyclopropyl)benzoxazole-4-carboxamide Hydrochloride] | 93.6

Target: T2, human 5-HT3 receptor (Homo sapiens, UniProt P46098)
T2 sequence (P46098 24-478): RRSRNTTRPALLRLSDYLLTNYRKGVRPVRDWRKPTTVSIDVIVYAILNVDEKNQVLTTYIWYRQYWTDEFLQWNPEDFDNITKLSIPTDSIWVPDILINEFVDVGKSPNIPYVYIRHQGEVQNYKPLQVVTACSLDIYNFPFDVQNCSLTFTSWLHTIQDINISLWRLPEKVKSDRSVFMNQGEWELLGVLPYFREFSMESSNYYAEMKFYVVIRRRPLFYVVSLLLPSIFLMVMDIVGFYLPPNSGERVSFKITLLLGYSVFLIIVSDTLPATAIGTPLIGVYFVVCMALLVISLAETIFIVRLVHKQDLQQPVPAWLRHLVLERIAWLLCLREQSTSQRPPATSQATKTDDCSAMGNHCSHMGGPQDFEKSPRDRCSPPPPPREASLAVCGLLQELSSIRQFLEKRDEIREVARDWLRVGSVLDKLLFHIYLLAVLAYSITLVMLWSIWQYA
Assay: Compound affinity for the human 5-HT3 receptor (Assay B), SPA radioligand binding with [9-methyl-3H]BRL-43694
Parameters: purchased Perkin Elmer
Settings: not given
Description: Compound Affinity for the Human 5-HT3 Receptor (Assay B)
The relative affinity of the various compounds for the human 5-HT3 receptor was measured in a radioligand binding assay, using a scintillation proximity assay (SPA) format. Test compounds were dissolved to 10 mM in 100% DMSO, then serially diluted at 10× assay concentrations in 100% DMSO in 96-well polypropylene plates and further diluted to 4× assay concentrations with the assay buffer. Samples were incubated in 50 mM Tris-HCl, pH 7.5, 3 mM MgCl2, 1 mM EDTA and 10% DMSO with 10 nM [9-methyl-3H]BRL-43694 (Perkin Elmer), 3 μg of human 5-HT3 receptor membranes (Perkin Elmer) and 0.5 mg/mL SPA beads (WGA PVT, Amersham Biosciences) in a final volume of 0.2 mL. Binding reactions were set up in wells of PicoPlates-96 (Perkin Elmer) by adding consecutively 50 μL of each competing compound or buffer, SPA beads, the radioligand and 5-HT3 receptor membranes. After 60-min incubation at room temperature on a Nutator mixer, plates were centrifuged for 15 min at 1,500 rpm, followed by incubation in the dark for 30 min. Radioactivity was counted in the TopCount microplate counter (Perkin Elmer) for 5 min. Total binding control contained buffer only; nonspecific binding was determined in the presence of 30 μM MDL-72222. Specific binding was determined by subtracting nonspecific binding from total binding. All experiments were performed in duplicate using ten concentrations of a competing ligand, with ondansetron included as a control in every run. IC50 values were determined from specific binding data using XLfit4.1 curve fitting software from IDBS Ltd. Ki values were then calculated from the Cheng-Prusoff equation.
as §1

Structure (SMILES) | Ki [nM]
CN1CCCCC1c1nc2c(C(=O)N[C@H]3C[C@H]4CCC[C@@H](C3)N4C)cccc2o1 (mixture of isomers) [Example 33, Endo-N-(9-Methyl-9-azabicyclo[3.3.1]nonan-3-yl)-2-(1-methylpiperidin-2-yl)benzoxazole-4-carboxamide Hydrochloride] | 21.6
CN1[C@@H]2CCC[C@H]1C[C@@H](NC(=O)c1cccc3oc(C4CCNCC4)nc13)C2 [Example 27, Endo-N-(9-methyl-9-azabicyclo[3.3.1]non-3-yl)-2-(piperidin-4-yl)benzoxazole-4-carboxamide Dihydrochloride] | 41
CN1CCC(c2nc3c(C(=O)N[C@H]4C[C@H]5CCC[C@@H](C4)N5C)cccc3o2)CC1 [Example 29, Endo-N-(9-methyl-9-azabicyclo[3.3.1]non-3-yl)-2-(1-methylpiperidin-4-yl)benzoxazole-4-carboxamide Dihydrochloride] | 28
CN1CCC(c2nc3c(C(=O)N[C@@H]4CN5CCC4CC5)cccc3o2)CC1 [Example 30, (S)—N-(1-Azabicyclo[2.2.2]oct-3-yl)-2-(1-methylpiperidin-4-yl)benzoxazole-4-carboxamide Dihydrochloride Dihydrochloride] | 83
CN1C2COCC1CC(NC(=O)c1cccc3oc(C4CCCC4)nc13)C2 (stereo not drawn) [Example 32, N-(9-methyl-3-oxa-9-azabicyclo[3.3.1]non-7-yl)-2-(cyclopentyl-4-yl)benzoxazole-4-carboxamide Hydrochloride] | 81.9
O=C(NC1CC2CCCC(C1)N2)c1cccc2oc(C3CC3)nc12 (stereo not drawn) [Example 36, N-(9-Azabicyclo[3.3.1]non-3-yl)-2-cyclopropylbenzoxazole-4-carboxamide Hydrochloride] | 6.3
CN1[C@@H]2CCC[C@H]1C[C@@H](NC(=O)c1cccc3oc(CN4CCOCC4)nc13)C2 [Example 39, Endo-N-(9-Methyl-9-azabicyclo[3.3.1]nonan-3-yl)-2-(morpholinomethyl)benzoxazole-4-carboxamide Hydrochloride] | 77.1
CCN(CC)Cc1nc2c(C(=O)N[C@H]3C[C@H]4CCC[C@@H](C3)N4C)cccc2o1 [Example 41, Endo-N-(9-Methyl-9-azabicyclo[3.3.1]nonan-3-yl)-2-(diethylaminomethyl)benzoxazole-4-carboxamide Hydrochloride] | 15.3
C[C@H]1OC(=O)N(C)C1c1nc2c(C(=O)NC3CC4CCCC(C3)N4C)cccc2o1 (stereo partly drawn) [Example 42, Endo-N-(9-methyl-9-azabicyclo[3.3.1]nonan-3-yl)-2-((4S,5R/4R,5S)-3,5-dimethyl-2-oxo-oxazolidin-4-yl)benzoxazole-4-carboxamide] | 24.9

Same assay, conditions: Assay B; 10 μM

Structure (SMILES) | inhibition at 10 µM [%]
O=C(N[C@@H]1CN2CCC1CC2)c1cccc2oc(CN3CCOCC3)nc12 [Example 38, (S)—N-(Azabicyclo[2.2.2]oct-3-yl)-2-(morpholinomethyl)benzoxazole-4-carboxamide Hydrochloride] | 74

Same assay, conditions: Assay B; SPA, [9-methyl-3H]BRL-43694; Cheng-Prusoff; read-out: Human 5HT3 Ki

Structure (SMILES) | Ki [nM]
O=C(N[C@@H]1CN2CCC1CC2)c1cccc2oc(C3CCOCC3)nc12 [Example 25, (S)—N-(1-Azabicyclo[2.2.2]oct-3-yl)-2-(tetrahydro-2H-pyran-4-yl)benzoxazole-4-carboxamide Hydrochloride] | 126
CN1[C@@H]2CCC[C@H]1C[C@@H](NC(=O)c1cccc3oc(C45CCN(CC4)CC5)nc13)C2 [Example 26, Endo-N-(9-Methyl-9-azabicyclo[3.3.1]nonan-3-yl)-2-(quinuclidin-4-yl)benzoxazole-4-carboxamide Dihydrochloride] | 173
O=C(N[C@@H]1CN2CCC1CC2)c1cccc2oc(C3CCNCC3)nc12 [Example 28, (S)—N-(1-Azabicyclo[2.2.2]oct-3-yl)-2-(piperidin-4-yl)benzoxazole-4-carboxamide Dihydrochloride] | 111
CC(=O)N1CCC(c2nc3c(C(=O)N[C@@H]4CN5CCC4CC5)cccc3o2)CC1 [Example 31, (S)—N-(1-Azabicyclo[2.2.2]oct-3-yl)-2-(1-acetylpiperidin-4-yl)benzoxazole-4-carboxamide Hydrochloride] | 356
CN1[C@@H]2CCC[C@H]1C[C@@H](NC(=O)c1cccc3nc(C(C)(C)C)oc13)C2 [Example 37, Endo-N-(9-methyl-9-azabicyclo[3.3.1]non-3-yl)-2-tert-butyl benzoxazole-7-carboxamide Hydrochloride] | 166
CCN(CC)Cc1nc2c(C(=O)NC3CN4CCC3CC4)cccc2o1 [Example 40, (S)—N-(Azabicylco[2.2.2]oct-3-yl)-2-(diethylaminomethyl)benzoxazole-4-carboxamide Hydrochloride] | 129
